Assay results: patent US5116818A, “Method and kit for contraception with GnRH-antagonist” (Medical College of Hampton Roads, priority 1990, dated 1992)

System: cynomolgus monkeys (Macaca fascicularis)
Assay: Study III: once-weekly Nal-Glu GnRH-antagonist plus 12 days of norgestimate, three treatment cycles
Format: in vivo
Procedure: STUDY III. In this study, which is reported in more detail in Contraception, June, 1990, Vol. 31, No. 6, pp. 623-631, six regularly cycling adult female cynomolgus monkeys (Macaca fascicularis) were housed in individual cages in a controlled environment and checked daily for menstrual flow. Each primate underwent a study entry control menstrual cycle in which alternate day blood samples were taken (under ketamine anesthesia, 10 mg/kg, im) to verify maturation of the dominant follicle, presumed ovulation, and corpus luteum function. The experimental design is depicted in FIG. 1. On menstrual cycle days 2, 9, 16, and 23 (onset of menses =Day 1) three of the monkeys were injected sc with 0.1 mg/kg GnRH-antagonist ([Ac-D2 Nal^1, 4ClDPhe^2, D3 Pal^3, Arg^5,DGlu^6 (AA), DAla^10 ]- GnRH; Nal-Glu) in saline. This dose was selected based on dose-response findings reported in Fertil Seril 1987; 48:480-485. On cycle days 15 to 26, each female was administered 25 μg norgestimate/day orally. This treatment regimen (once-weekly GnRH-antagonist plus 12 days of progestin) was repeated for 2 additional cycles (84 days total). Two of the treated monkeys were ovariectomized at the end of the third treatment cycle to evaluate ovarian follicular morphology. […] Three control monkeys received saline injections and blank (progestin placebo) capsules according to the same regimen. Serum samples were assayed by RIA for estradiol, progesterone, LH, and FSH.

C#C[C@]1(OC(C)=O)CC[C@H]2[C@@H]3CCC4=CC(=NO)CC[C@@H]4[C@H]3CC[C@@]21CC (mixture of isomers) [norgestimate]
transformation of endometrium (sequential norgestimate, histological sections on day 26): effectively transformed proliferative to secretory endometrium

[Ac-D2 Nal^1, 4ClDPhe^2, D3 Pal^3, Arg^5,DGlu^6 (AA), DAla^10 ]- GnRH [Nal-Glu]
completion of follicular maturation, ovulation and corpus luteum function (0.1 mg/kg sc on cycle days 2, 9, 16, 23, judged by serum LH, E2 and P levels): effectively blocked
LH surges or serum progesterone rises (during the intermittent regimen): NO LH surges or serum progesterone rises were detected
serum progesterone (during the treatment cycles): < 0.1 ng/mL
